The results in this text go back to the PolyMetriX glass transition set.

For the compound `*Oc1ccc(C(C)(C)c2ccc(Oc3cccc(*)n3)cc2)cc1` (repeat unit), the glass transition temperature came to 107.00 °C.

Regarding `*Oc1ccc(C(C)(C)c2ccc(Oc3cncc(*)n3)cc2)cc1` (repeat unit), the glass transition temperature stood at 145.00 °C.

As to `*Oc1cccc(S(=O)(=O)c2ccc(*)cc2)c1` (repeat unit), the glass transition temperature was 175.00 °C.

For the compound `*Oc1ccccc1S(=O)(=O)c1ccc(*)cc1` (repeat unit), the glass transition temperature was 221.00 °C.

`*Sc1ccc(Sc2ccc(Sc3ccc(P(=O)(c4ccccc4)c4ccc(*)cc4)cc3)cc2)cc1` (repeat unit) displayed a glass transition temperature of 175.00 °C.

Turning to `*c1ccc(Cc2ccc(N3C(=O)c4ccc(Oc5ccc(C(C)(C)c6ccc(Oc7ccc8c(c7)C(=O)N(*)C8=O)cc6)cc5)cc4C3=O)cc2)cc1` (repeat unit), the glass transition temperature was found to be 217.00 °C.

The compound `*c1ccc(N(c2ccc(C#N)cc2)c2ccc(N3C(=O)c4ccc(Oc5ccc(C(C)(C)c6ccc(C(C)(C)c7ccc(Oc8ccc9c(c8)C(=O)N(*)C9=O)cc7)cc6)cc5)cc4C3=O)cc2)cc1` (repeat unit) showed a glass transition temperature of 224.00 °C.

`*c1ccc(N2C(=O)c3ccc(Oc4ccc(C(C)(C)c5ccc(Oc6ccc7c(c6)C(=O)N(c6ccc8[nH]c(*)nc8c6)C7=O)cc5)cc4)cc3C2=O)cc1` (repeat unit) returned a glass transition temperature of 324.00 °C.

The compound `*c1ccc(O)c(N2C(=O)c3ccc(Oc4ccc(C(C)(C)c5ccc(Oc6ccc7c(c6)C(=O)N(*)C7=O)cc5)cc4)cc3C2=O)c1` (repeat unit) yielded a glass transition temperature of 246.00 °C.

`*c1ccc(Oc2ccc(-c3ccc(Oc4ccc(N5C(=O)c6cccc(Oc7ccc(C(C)(C)c8ccc(Oc9cccc%10c9C(=O)N(*)C%10=O)cc8)cc7)c6C5=O)cc4)cc3)cc2)cc1` (repeat unit): the glass transition temperature is 236.00 °C.

In turn, `*c1ccc(Oc2ccc(C(=O)c3cccc(C(=O)c4ccc(Oc5ccc(-c6nc(-c7ccccn7)nnc6*)cc5)cc4)c3)cc2)cc1` (repeat unit) displayed a glass transition temperature of 202.00 °C.

For `*c1ccc(Oc2ccc(N3C(=O)c4ccc(Oc5ccc(C(C)(C)c6ccc(Oc7ccc8c(c7)C(=O)N(*)C8=O)cc6)cc5)cc4C3=O)cc2)cc1` (repeat unit), the glass transition temperature turned out to be 215.00 °C.

Turning to `*c1ccc(Oc2ccc(S(=O)(=O)c3ccc(Oc4ccc(N5C(=O)c6ccc(Oc7ccc(C(C)(C)c8ccc(Oc9ccc%10c(c9)C(=O)N(*)C%10=O)cc8)cc7)cc6C5=O)cc4)cc3)cc2)cc1` (repeat unit), the glass transition temperature turned out to be 200.00 °C.

The compound `*c1ccc(Oc2cccc(-c3cc(-c4ccccc4)cc(-c4cccc(Oc5ccc(-n6c(=O)c7cc8c(=O)n(*)c(=O)c8cc7c6=O)cc5)c4)n3)c2)cc1` (repeat unit) gave a glass transition temperature of 264.00 °C.

With `*c1ccc(Oc2cccc(Oc3ccc(-n4c(=O)c5cc6c(=O)n(*)c(=O)c6cc5c4=O)cc3)c2)cc1` (repeat unit), the glass transition temperature stood at 326.00 °C.

`*c1ccc(Oc2ccccc2Oc2ccc(-n3c(=O)c4cc5c(=O)n(*)c(=O)c5cc4c3=O)cc2C(F)(F)F)c(C(F)(F)F)c1` (repeat unit) displayed a glass transition temperature of 277.00 °C.

Regarding `*c1ccc(S(=O)(=O)c2ccc(N3C(=O)C(C)C(SCCOCCSC4C(=O)N(c5ccc(S(=O)(=O)c6ccc(N7C(=O)CC(C)(SCCOCCSC8(C)CC(=O)N(*)C8=O)C7=O)cc6)cc5)C(=O)C4C)C3=O)cc2)cc1` (repeat unit), the glass transition temperature came to 157.00 °C.

In the case of `*c1ccc(Sc2ccc(-n3c(=O)c4cc5c(=O)n(*)c(=O)c5cc4c3=O)cn2)nc1` (repeat unit), the glass transition temperature stood at 359.00 °C.

Take `*c1ccc(Sc2ccc(S(*)(=O)=O)cc2)cc1` (repeat unit): the glass transition temperature was 215.00 °C.

The compound `*c1ccc(Sc2ccc3c(c2)Sc2ccc(Sc4ccc(-n5c(=O)c6cc7c(=O)n(*)c(=O)c7cc6c5=O)cc4)cc2S3)cc1` (repeat unit) displayed a glass transition temperature of 254.8 °C.

`*c1ccc([Si](C)(C)[Si](*)(C)C)s1` (repeat unit) displayed a glass transition temperature of 15.00 °C.
